Source: ChEMBL document CHEMBL3616426 (Eur J Med Chem, 2015)
Calls of active or inactive are those of the source. No cut-off for these calls is given here.

Experiments:
Rattus norvegicus [1] = assay: Antiosteoporotic activity in ovariectomized Sprague-Dawley rat assessed as bone mineral density recovery at 10 ug/kg, po qd measured at 18th week by micro-CT analysis relative to SHAM control; assay type: functional
Rattus norvegicus [2] = assay: Antiosteoporotic activity in ovariectomized Sprague-Dawley rat assessed as prevention of bone mineral density loss at 1 to 3 ug/kg, po qd measured at 6th to 18th week by micro-CT analysis relative to OVX rat; assay type: functional, organism-based
Rattus norvegicus [3] = assay: Antiosteoporotic activity in ovariectomized Sprague-Dawley rat assessed as bone volume /tissue volume at 10 ug/kg, po qd at 6th week by micro-CT analysis (reference value: 41.33 +/- 5.04%); assay type: functional
Rattus norvegicus [4] = assay: Antiosteoporotic activity in ovariectomized Sprague-Dawley rat assessed as bone volume /tissue volume at 3 ug/kg, po qd at 12th week by micro-CT analysis (reference value: 31.61 +/- 2.39%); assay type: functional
Rattus norvegicus [5] = assay: Antiosteoporotic activity in ovariectomized Sprague-Dawley rat assessed as bone volume /tissue volume at 1 ug/kg, po qd at 18th week by micro-CT analysis (reference value: 27.36 +/- 1.99%); assay type: functional
Rattus norvegicus [6] = assay: Antiosteoporotic activity in ovariectomized Sprague-Dawley rat assessed as bone volume /tissue volume at 3 ug/kg, po qd at 18th week by micro-CT analysis (reference value: 27.36 +/- 1.99%); assay type: functional
Rattus norvegicus [7] = assay: Antiosteoporotic activity in ovariectomized Sprague-Dawley rat assessed as bone volume /tissue volume at 10 ug/kg, po qd at 18th week by micro-CT analysis (reference value: 27.36 +/- 1.99%); assay type: functional
Rattus norvegicus [8] = assay: Antiosteoporotic activity in ovariectomized Sprague-Dawley rat assessed as trabecular thickness at 1 ug/kg, po qd at 6th week by micro-CT analysis (reference value: 0.086 +/- 0.0069 millimeter); assay type: functional, Trabecula
Rattus norvegicus [9] = assay: Antiosteoporotic activity in ovariectomized Sprague-Dawley rat assessed as trabecular thickness at 3 ug/kg, po qd at 6th week by micro-CT analysis (reference value: 0.086 +/- 0.0069 millimeter); assay type: functional, Trabecula
Rattus norvegicus [10] = assay: Antiosteoporotic activity in ovariectomized Sprague-Dawley rat assessed as trabecular thickness at 1 ug/kg, po qd at 12th week by micro-CT analysis (reference value: 0.070 +/- 0.0063 millimeter); assay type: functional, Trabecula
Rattus norvegicus [11] = assay: Antiosteoporotic activity in ovariectomized Sprague-Dawley rat assessed as trabecular thickness at 3 ug/kg, po qd at 12th week by micro-CT analysis (reference value: 0.070 +/- 0.0063 millimeter); assay type: functional, Trabecula
Rattus norvegicus [12] = assay: Antiosteoporotic activity in ovariectomized Sprague-Dawley rat assessed as trabecular thickness at 10 ug/kg, po qd at 12th week by micro-CT analysis (reference value: 0.070 +/- 0.0063 millimeter); assay type: functional, Trabecula
Rattus norvegicus [13] = assay: Antiosteoporotic activity in ovariectomized Sprague-Dawley rat assessed as trabecular thickness at 1 ug/kg, po qd at 18th week by micro-CT analysis (reference value: 0.103 +/- 0.0044 millimeter); assay type: functional, Trabecula
Rattus norvegicus [14] = assay: Antiosteoporotic activity in ovariectomized Sprague-Dawley rat assessed as trabecular thickness at 3 ug/kg, po qd at 18th week by micro-CT analysis (reference value: 0.103 +/- 0.0044 millimeter); assay type: functional, Trabecula
Rattus norvegicus [15] = assay: Antiosteoporotic activity in ovariectomized Sprague-Dawley rat assessed as trabecular thickness at 10 ug/kg, po qd at 18th week by micro-CT analysis (reference value: 0.103 +/- 0.0044 millimeter); assay type: functional, Trabecula
Rattus norvegicus [16] = assay: Antiosteoporotic activity in ovariectomized Sprague-Dawley rat assessed as trabecular separation at 1 ug/kg, po qd at 6th week by micro-CT analysis (reference value: 0.116 +/- 0.010 millimeter); assay type: functional, Trabecula
Rattus norvegicus [17] = assay: Antiosteoporotic activity in ovariectomized Sprague-Dawley rat assessed as trabecular separation at 3 ug/kg, po qd at 6th week by micro-CT analysis (reference value: 0.116 +/- 0.010 millimeter); assay type: functional, Trabecula
Rattus norvegicus [18] = assay: Antiosteoporotic activity in ovariectomized Sprague-Dawley rat assessed as trabecular separation at 3 ug/kg, po qd at 12th week by micro-CT analysis (reference value: 0.146 +/- 0.010 millimeter); assay type: functional, Trabecula
Rattus norvegicus [19] = assay: Antiosteoporotic activity in ovariectomized Sprague-Dawley rat assessed as trabecular separation at 1 ug/kg, po qd at 18th week by micro-CT analysis (reference value: 0.234 +/- 0.021 millimeter); assay type: functional, Trabecula
Rattus norvegicus [20] = assay: Antiosteoporotic activity in ovariectomized Sprague-Dawley rat assessed as trabecular separation at 3 ug/kg, po qd at 18th week by micro-CT analysis (reference value: 0.234 +/- 0.021 millimeter); assay type: functional, Trabecula
Rattus norvegicus [21] = assay: Antiosteoporotic activity in ovariectomized Sprague-Dawley rat assessed as trabecular separation at 10 ug/kg, po qd at 18th week by micro-CT analysis (reference value: 0.234 +/- 0.021 millimeter); assay type: functional, Trabecula
Rattus norvegicus [22] = assay: Antiosteoporotic activity in ovariectomized Sprague-Dawley rat assessed as serum osteocalcin level at 1 ug/kg, po qd at 12th week by enzyme immunoassay (reference value: 1055.8 +/- 14 ng/ml); assay type: functional
Rattus norvegicus [23] = assay: Antiosteoporotic activity in ovariectomized Sprague-Dawley rat assessed as decrease in serum osteocalcin level at 3 ug/kg, po qd at 18th week by enzyme immunoassay relative to SHAM control; assay type: functional, organism-based
Rattus norvegicus [24] = assay: Antiosteoporotic activity in ovariectomized Sprague-Dawley rat assessed as bone volume /tissue volume recovery at 10 ug/kg, po qd measured at 18th week by micro-CT analysis relative to SHAM control; assay type: functional
Rattus norvegicus [25] = assay: Antiosteoporotic activity in ovariectomized Sprague-Dawley rat assessed as trabecular thickness recovery at 10 ug/kg, po qd measured at 18th week by micro-CT analysis relative to SHAM control; assay type: functional, Trabecula
Rattus norvegicus [26] = assay: Antiosteoporotic activity in ovariectomized Sprague-Dawley rat assessed as serum osteocalcin level at 3 ug/kg, po qd at 12th week by enzyme immunoassay (reference value: 1055.8 +/- 14 ng/ml); assay type: functional
Rattus norvegicus [27] = assay: Antiosteoporotic activity in ovariectomized Sprague-Dawley rat assessed as serum osteocalcin level at 10 ug/kg, po qd at 12th week by enzyme immunoassay (reference value: 1055.8 +/- 14 ng/ml); assay type: functional
Rattus norvegicus [28] = assay: Antiosteoporotic activity in ovariectomized Sprague-Dawley rat assessed as serum osteocalcin level at 1 ug/kg, po qd at 18th week by enzyme immunoassay (reference value: 1118.9 +/- 37.77 ng/ml); assay type: functional
[29] = n-octanol-water partition coefficient, log P of the compound after 24 hrs by HPLC analysis; assay type: physicochemical
Mus musculus = assay: Acute toxicity in ICR mouse assessed as survival at 5000 ug/kg, po after 2 weeks; assay type: organism-based; conditions: in vivo, 5 mg/kg, 336 h
Estrogen receptor beta = Estrogen receptor beta (Homo sapiens, UniProt Q92731); assay: Agonist activity at ERbeta (248 to 510 amino acid residues) (unknown origin) assessed as induction of interaction with SRC1 after 24 hrs by yeast two-hybrid assay
Chain of Estrogen receptor beta (Q92731 whole entry, the tested form may be a part): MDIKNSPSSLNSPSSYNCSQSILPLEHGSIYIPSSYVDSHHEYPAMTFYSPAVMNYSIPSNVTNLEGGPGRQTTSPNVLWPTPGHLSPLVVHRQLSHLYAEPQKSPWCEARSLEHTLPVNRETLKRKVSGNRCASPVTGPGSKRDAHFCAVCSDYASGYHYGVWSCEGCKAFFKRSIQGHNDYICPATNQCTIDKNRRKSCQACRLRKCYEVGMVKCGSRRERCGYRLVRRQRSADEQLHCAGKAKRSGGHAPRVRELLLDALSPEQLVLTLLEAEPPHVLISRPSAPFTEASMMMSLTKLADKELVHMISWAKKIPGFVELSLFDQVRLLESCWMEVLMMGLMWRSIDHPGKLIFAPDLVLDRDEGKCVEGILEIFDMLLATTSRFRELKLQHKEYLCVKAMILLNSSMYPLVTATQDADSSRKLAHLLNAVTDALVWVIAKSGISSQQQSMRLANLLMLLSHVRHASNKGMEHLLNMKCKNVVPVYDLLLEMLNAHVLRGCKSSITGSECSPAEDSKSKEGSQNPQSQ

## O=C1c2cc(O)cc(O)c2[C@@H](c2ccc(O)cc2)[C@@H]1c1cc(O)cc(O)c1 [ISOPAUCIFLORAL F]
Rattus norvegicus [1]
  Activity: 90%
Rattus norvegicus [2]
  Activity: inactive
Rattus norvegicus [3]
  Activity: 40.25%
Rattus norvegicus [4]
  Activity: 41.01%
Rattus norvegicus [5]
  Activity: 35.56%
Rattus norvegicus [6]
  Activity: 36.45%
Rattus norvegicus [7]
  Activity: 66.42%
Rattus norvegicus [8]
  Activity: 0.083 mm
Rattus norvegicus [9]
  Activity: 0.092 mm
Rattus norvegicus [10]
  Activity: 0.086 mm
Rattus norvegicus [11]
  Activity: 0.085 mm
Rattus norvegicus [12]
  Activity: 0.087 mm
Rattus norvegicus [13]
  Activity: 0.106 mm
Rattus norvegicus [14]
  Activity: 0.102 mm
Rattus norvegicus [15]
  Activity: 0.212 mm
Rattus norvegicus [16]
  Activity: 0.104 mm
Rattus norvegicus [17]
  Activity: 0.097 mm
Rattus norvegicus [18]
  Activity: 0.173 mm
Rattus norvegicus [19]
  Activity: 0.183 mm
Rattus norvegicus [20]
  Activity: 0.183 mm
Rattus norvegicus [21]
  Activity: 0.096 mm
Rattus norvegicus [22]
  Activity: 1172.9 ng/mL
Rattus norvegicus [23]
  Activity: Active
Rattus norvegicus [24]
  Activity: 78%
Rattus norvegicus [25]
  Activity: 78%
Rattus norvegicus [26]
  Activity: 1109.6 ng/mL
Rattus norvegicus [27]
  Activity: 1156.07 ng/mL
Rattus norvegicus [28]
  Activity: 812.1 ng/mL
[29]
  logP at 24 h: 1.34
Mus musculus
  Activity: Non-toxic
Estrogen receptor beta
  EC50: 47 µM
